Common to all, as to type: in vivo, corn (maize, Zea mays)
In data set [1] the test system is Inbred C male plants (corn). Briefly: GA3 spray to increase male inbred height, Inbred C (Brazil). The procedure: (§1) GA3 spray to increase male inbred height was also tested with 2 more inbreds, Inbred B and Inbred C, in Brazil.
(§2) Data were collected after the following treatments: (a) control, (b) GA3: one application, before flowering, when the tassel is enveloped in 2 leaves; (b) GA3: 2 sequential applications, one at V6 stage and 1 application before flowering. The concentration of GA3 used was 365 g of GA3 (10% active ingredient) per hectare (which is approximately equivalent to 40 g of GA3 at 90% active ingredient), and the spray volume was 130 liters/hectare.
(§3) The plot had 5.20 meter length of each row and 60 cm between plots. Ten male plants in sequence for each male row (primary male and secondary male separate) were measured and the average calculation was obtained and replicated 5 times in different plots. Measurements taken were plant height; length of primary rachis of the tassel; number of secondary tassel branches; and visual pollen score where 1=no pollen (sterile), 5=average amount of pollen, and 9=large amount of pollen.

Data set [2] has as its system Inbred B male plants (corn). Briefly: GA3 spray to increase male inbred height, Inbred B (Brazil). To be noted: for plant height increase: one application before flowering, 365 g GA3 (10% active ingredient) per hectare. On the procedure: as §1
Inbred B was sown in two sequential plantings, separated by 80 to 100 heat units. The first planting is referred to as the primary male; the second planting is referred to as the secondary male. The two male plantings were separated in the field by 40 cm; minimum distance from female rows was 70 cm.
as §2, §3

Data set [3] concerns male parent plant of Hybrid A (corn). The text has this: Hybrid A is a three-way corn hybrid which performs well in rain-fed areas in India. The female parent of this hybrid is a single cross and male parent is an inbred. […] The ear height in female is 94 cm and male plant height (including tassel length) is 190 cm. The ratio of male parent plant height to female parent ear height is 2.02. This is not favorable for pollen dispersal and cross fertilization. A taller male gives a very clear advantage in easy spread of pollen. Further, a height disadvantage is amplified where the female is a single cross and male is inbred, as the robust female parent suppresses male parent growth. […] With less seed yield due to low seed set, seed production may be uneconomical in Hybrid A. Controlled use of Gibberellic Acid as foliar spray for male parent helped increase the plant height and thereby facilitated easier dispersal of pollen for better pollination success.
When GA3 was sprayed on male parent at a given dosage, the last few internodes were elongated and the plant height was increased by 33 cm. The ratio of male parent plant height to female parent ear height increased from 2.02 in control (no GA3 spray) to 2.40 after spray. This spray was done when a minimum of 80% of the plants had the tassel wrapped in two leaves.
A field trial was conducted to study the impact of GA3 on male parent plant height and also seed yield in hybrid seed production. GA3 dose of 10 g (dissolved in 100 ml alcohol) was sprayed in one acre of male plants (25% of area in 3:1 row ratio) when male tassel is wrapped up in two leaves.

[4] abbreviates: Inbred B, one GA application vs control.
Where [5] appears, read: Inbred B, two sequential GA treatments (V6 and before flowering), relative to control, primary and secondary males.

The results in this text go back to patent publication US9526243B2, “Pollination success and seed set in corn hybrid seed production” (priority 2012, dated 2016).

As for `C=C1C[C@]23C[C@@]1(O)CC[C@H]2[C@@]12C=C[C@H](O)[C@@](C)(C(=O)O1)[C@H]2[C@@H]3C(=O)O` [GA3, gibberellin A3], in data set [1] (2 sequential applications (V6 and before flowering)), the “effect of a second application compared with a single application” value is listed as “not more favorable than a single application”. Besides, the “number of secondary branches on the rachis” value in data set [1] (one GA application vs control) and in data set [2] (setting [4]) was “did not change significantly” in each case. For the same compound, the primary rachis length result in data set [1] (one GA application vs control) and in data set [2] (setting [4]) was “did not change significantly” throughout. Further, the pollen score entry in data set [1] (one GA application vs control, visual score 1-9) is “did not change significantly”; in data set [2] (Inbred B, one GA application vs control, visual score 1-9), “did not change significantly”; in data set [2] (setting [5]), “reduced”. In addition, the values for the plant height increase in data set [1] (one application of GA3), in data set [2] (Inbred B primary males) and in data set [2] (Inbred B secondary males) were roughly 12 cm, “about 10 cm” and roughly 15 cm, respectively. The “height of male parent plants” value in data set [2] (Inbred B, GA3 concentration increased to 16 g/1000 m^2 of male plants) is listed as “increase further”. Moreover, the “size of the main rachis” value in data set [2] (setting [5]) is on record as “reduced”. The yield improvement in data set [3] (Hybrid A experimental plot, GA3 treatment vs control) is 32%. In data set [3] (Hybrid A experimental plot, control 607 Kg/Acre), the “hybrid seed yield with GA3 treatment” value is 803 Kg/Acre. The “negative or deleterious effects on other plant processes” value in data set [3] (Hybrid A male parent after GA3 spray) was “without any negative or deleterious effects”. In addition, the “increase in male parent plant height” value in data set [3] (Hybrid A male parent, GA3 10 g sprayed when tassel wrapped in two leaves, vs control (no GA3 spray)) is given as 33 cm. In addition, the “male parent plant height increase” value in data set [3] (Hybrid A male parent, after spraying GA3, from 190 cm) was 17%. In addition, the “male parent plant height after spraying GA3” value in data set [3] (Hybrid A male parent, control 190 cm) worked out at 223 cm. For the same compound, in data set [3] (Hybrid A, after GA3 spray, control 2.02), the “ratio of male parent plant height to female parent ear height after spray” value is recorded as 2.40.
